# Assay results reported in patent US20260215418A1, “HYDROCARBON ALCOHOLS AND THEIR DERIVATIVES AS SYNERGISTS IN PESTICIDE ACTIVITY” (priority 2022, published 2026).
# Several values for one entry are separate records, joined by “and”; a condition that tells them apart may be missing. Equal entries are not always repeated. Where two headings read alike, the source gives them in different places.
# How the values were obtained:
# [1] = tested on: Musca domestica L.; test: Contact test on non-porous tile, Musca domestica; assay type: in vivo; set-up: Mortality %: concentration or dose not given beside the values; conditions: for mortality at 680 µg/mL: 0.68 mg/ml; for Mortality %: insects on treated tile
# Method: 1 ml of Composition 1 was applied to the tile. […] 1 ml of Composition 8a was distributed on the tile. […] 1 ml of Composition 8a was distributed on a tile. […] At the end of the 30 minutes, the flies were transferred to an untreated area.
# 1 ml of Composition 3 was applied to the tile. […] 1 ml of Composition 8c was distributed on the tile. […] 1 ml of Composition 8c was distributed on a tile. […] At the end of the 30 minutes, the flies were transferred to an untreated area.
# 1 ml of Composition 9a was distributed on the tile. […] 1 ml of Composition 9a was distributed on a tile. […] At the end of the 30 minutes, the flies were transferred to an untreated area. […] 1 ml of Composition 10a was distributed on the tile. […] 1 ml of Composition 10a was distributed on a tile. […] At the end of the 30 minutes, the flies were transferred to an untreated area. […] 1 ml of Composition 8c was distributed on the tile. […] 1 ml of Composition 8c was distributed on a tile. […] At the end of the 30 minutes, the flies were transferred to an untreated area.
# 1 ml of Composition 5a, was distributed on the tile. […] 1 ml of Composition 6a was distributed on the tile. […] 1 ml of Composition 7a was distributed on the tile.
# 1 ml of Composition 3 was distributed on the tile. […] 1 ml of Composition 9a was distributed on the tile. […] 1 ml of Composition 11a was distributed on a tile. […] 1 ml of Composition 12a was distributed on a tile.
# 1 ml of Composition 3 was distributed on the tile. […] 1 ml of Composition 17a was distributed on a tile. […] 1 ml of Composition 18a was distributed on a tile. […] Each experiment (A-C) was conducted in duplicate.
# 1 ml of Composition 23a was distributed on the tile. […] 1 ml of Composition 20a was distributed on a tile. […] Each experiment (A-B) was conducted in duplicate.
# 1 ml of Composition 3 was distributed on the tile. […] 1 ml of Composition 25a was distributed on a tile. […] Each experiment (A-B) was conducted in duplicate.
# 1 ml of Composition 23a was distributed on the tile. […] 1 ml of Composition 27a was distributed on a tile. […] Each experiment (A-B) was conducted in duplicate.
# 1 ml of Composition 26a was distributed on a tile. […] 1 ml of Composition 26b was distributed on a tile. […] 1 ml of Composition 26c was distributed on a tile.
# 1 ml of Composition 22a was distributed on a tile. […] 1 ml of Composition 22b was distributed on a tile. […] 1 ml of Composition 22c was distributed on a tile.
# 1 ml of Composition 23a was distributed on the tile. […] 1 ml of Composition 44a was distributed on a tile.
# 1 ml of Composition 33 was distributed on a tile. […] 1 ml of Composition 33 was distributed on a tile. […] At the end of the 30 minutes, the flies were transferred to an untreated area.
# 1 ml of Composition 1 was distributed on the tile. […] 1 ml of Composition 34 was distributed on a tile. […] 1 ml of Composition 34 was distributed on a tile. […] At the end of the 30 minutes, the flies were transferred to an untreated area.
# 1 ml of Composition 3 was distributed on the tile. […] 1 ml of Composition 31a was distributed on a tile. […] 1 ml of Composition 31b was distributed on a tile. […] 1 ml of Composition 31b was distributed on a tile. […] At the end of the 30 minutes, the flies were transferred to an untreated area. […] 1 ml of Composition 38a was distributed on a tile. […] 1 ml of Composition 38a was distributed on a tile. […] At the end of the 30 minutes, the flies were transferred to an untreated area.
# G) According to the invention. 1 ml of Composition 40a was distributed on a tile. […] Subsequently, after waiting for the solvent to evaporate, 10 flies were placed on top of the treated til
# [2] = tested on: Blatta orientalis; conditions: for Mortality %/time (h) (application): Table 37, Blatta orientalis, concentrations in mg/ml in label; for Mortality %: insects on treated tile
# Method: Method: Contact test on non-porous tile measuring 400 cm^2 at a temperature of 28° C. Test duration: up to 72 hours after exposure of the insect to the insecticidal active substance.
# (§1) Three tests were performed in parallel, A, B, and C, as follows: • A) Comparative. 1 ml of Composition 2 was applied to the tile. After waiting for the complete evaporation of the solvent, 10 cockroaches were placed on top of the treated tile, starting the test. • B) According to the invention. 1 ml of Composition 8b was distributed on the tile. After waiting for the complete evaporation of the solvent, 1 ml of Composition 2 was added to the same tile. Subsequently, after waiting for the solvent to evaporate, 10 cockroaches were placed on top of the treated tile, starting the test. • C) According to the invention. 1 ml of Composition 8b was distributed on a tile. After waiting for the complete evaporation of the solvent, 10 cockroaches were placed for 30 minutes on top of the treated tile. At the end of the 30 minutes, the cockroaches were transferred to an untreated area.
# Method: Contact test on non-porous tile measuring 400 cm^2 at a temperature of 28° C. Test duration: up to 120 hours after exposure of the insect to the insecticidal active substance.
# as §1, with “4a” for “2”, “8d” for “8b”, “After” for “Subsequently, after”
# Six tests were performed in parallel, A, B, C, D, E and F, as follows: • A) Comparative. 1 ml of Composition 9b was distributed on the tile. After waiting for the complete evaporation of the solvent, 1 ml of Composition 4a was added to the same tile. Subsequently, after waiting for the solvent to evaporate, 10 cockroaches were placed on top of the treated tile, starting the test. • B) Comparative. 1 ml of Composition 9b was distributed on a tile. After waiting for the complete evaporation of the solvent, 10 cockroaches were placed for 30 minutes on top of the treated tile. At the end of the 30 minutes, the cockroaches were transferred to an untreated area. […] 1 ml of Composition 10b was distributed on the tile. After waiting for the complete evaporation of the solvent, 1 ml of Composition 4a was added to the same tile. Subsequently, after waiting for the solvent to evaporate, 10 cockroaches were placed on top of the treated tile, starting the test. • D) Comparative. 1 ml of Composition 10b was distributed on a tile. After waiting for the complete evaporation of the solvent, 10 cockroaches were placed for 30 minutes on top of the treated tile. At the end of the 30 minutes, the cockroaches were transferred to an untreated area. […] 1 ml of Composition 8d was distributed on the tile. After waiting for the complete evaporation of the solvent, 1 ml of Composition 4a was added to the same tile. Subsequently, after waiting for the solvent to evaporate, 10 cockroaches were placed on top of the treated tile, starting the test. • F) According to the invention. 1 ml of Composition 8d was distributed on a tile. After waiting for the complete evaporation of the solvent, 10 cockroaches were placed for 30 minutes on top of the treated tile. At the end of the 30 minutes, the cockroaches were transferred to an untreated area.
# [3] = Musca domestica, single substance alone, 48 h, read-out: Mortality %/time (h)
compound,measurement,setting,value
"CCCCCCCCCCC(O)CO (stereo not drawn) [1,2-dodecandiol]",mortality at 680 µg/mL,[1]; [3],0%
"CCCCC(O)CO (stereo not drawn) [1,2-hexandiol (0.84), 1,2-hexandiol]",Mortality %/time (h) (application),[2]; 48 h,0/48 ^ %
"CCCCCCC(O)CO (stereo not drawn) [1,2-octandiol]",mortality at 680 µg/mL,[1]; [3],0%
"OCCCCCCCCO [1,8-octandiol]",mortality at 680 µg/mL,[1]; [3],0%
COP(=O)(OC)SCn1c(=O)oc2cc(Cl)cnc21 [Azamethiphos],mortality at 6900 µg/mL,"[1]; Musca domestica, 48 h, read-out: Mortality %/time (h)",23%
"CC1(C)C(C=C(Cl)Cl)C1C(=O)OC(C#N)c1cccc(Oc2ccccc2)c1 (stereo not drawn) [Composition 3, Cypermethrin, reference compound]",Mortality %,"[1]; Example 3, 26° C, 24 h",10%
same,Mortality %,"[1]; Example 3, 26° C, 48 h",20%
same,Mortality %,"[1]; Example 9, 21° C, 24 h",5%
same,Mortality %,"[1]; Example 9, 21° C, 48 h",16%
same,Mortality %,"[1]; Example 12, 21° C, 24 h",5%
same,Mortality %,"[1]; Example 12, 21° C, 48 h",16%
same,Mortality %,"[1]; Example 17, 21° C, 48 h",16%
same,Mortality %,"[1]; Example 29, 25° C, 24 h",10%
same,Mortality %,"[1]; Example 29, 25° C, 48 h",16%
"CC1(C)C(C=C(Cl)Cl)C1C(=O)OC(C#N)c1cccc(Oc2ccccc2)c1 (stereo not drawn) [Composition 4a, Cypermethrin]",Mortality %,"[2]; Example 4, 28° C, 24 h",30%
same,Mortality %,"[2]; Example 4, 28° C, 48 h",35%
same,Mortality %,"[2]; Example 4, 28° C, 120 h",35%
same,Mortality %,"[2]; Example 10, 21° C, 24 h",20%
same,Mortality %,"[2]; Example 10, 21° C, 48 h",35%
same,Mortality %,"[2]; Example 11, 21° C, 48 h",20%
same,Mortality %,"[2]; Example 11, 21° C, 72 h",25%
same,Mortality %,"[2]; Example 11, 21° C, 96 h",33%
same,Mortality %,"[2]; Example 13, 21° C, 48 h",60%
same,Mortality %,"[2]; Example 13, 21° C, 72 h",62%
same,Mortality %,"[2]; Example 20, 21° C, 24 h",5%
same,Mortality %,"[2]; Example 20, 21° C, 72 h",25%
same,Mortality %,"[2]; Example 32, 25° C, 24 h",10%
same,Mortality %,"[2]; Example 32, 25° C, 48 h",35%
same,Mortality %,"[2]; Example 32, 25° C, 72 h",45%
same,Mortality %/time (h) (application),"[2]; 48 h, listed as Cypermethrin (0.20)",35/48 ^ % and 20/48 ^ %
"CCCCC(CC)COC(=O)OCC(CC)CCCC (stereo not drawn) [Composition 17b, Bis(2-ethyl-hexyl)-carbonate]",Mortality %/time (h) (application),[2]; 48 h,0/48 ^ %
"CCCCCCCCOC(=O)OCCCCCCCC [Composition 18b, Dioctyl carbonate]",Mortality %/time (h) (application),[2]; 48 h,0/48 ^ %
"COP(=O)(OC)SCn1c(=O)oc2cc(Cl)cnc21 [Composition 23a, Azamethiphos, reference compound]",Mortality %,"[1]; Example 14, 21° C, 48 h",23%
same,Mortality %,"[1]; Example 18, 21° C, 24 h",23%
same,Mortality %,"[1]; Example 24, 25° C, 24 h",10%
same,Mortality %,"[1]; Example 30, 25° C, 24 h",10%
same,Mortality %,"[1]; Example 30, 25° C, 48 h",23%
"CC1(C)C(C=C(Cl)Cl)C1C(=O)OC(C#N)c1cccc(Oc2ccccc2)c1 (stereo not drawn) [Composition 46a, Cypermethrin, reference compound]",Mortality %,"[1]; Example 35, 25° C, 24 h",5%
same,Mortality %,"[1]; Example 35, 25° C, 48 h",10%
CC1(C)C(C=C(Cl)Cl)C1C(=O)OC(C#N)c1cccc(Oc2ccccc2)c1 (stereo not drawn) [Cypermethrin],mortality at 230 µg/mL,"[1]; Musca domestica, single substance alone, 0.23 mg/ml, 48 h, read-out: Mortality %/time (h)",10%
same,mortality at 450 µg/mL,"[1]; Musca domestica, single substance alone, 0.45 mg/ml, 48 h, read-out: Mortality %/time (h)",16%
CCCCCCCCCCCCO [Dodecanol],mortality at 680 µg/mL,[1]; [3],4%
"Spinosad [Composition 43, reference compound]",Mortality %,"[1]; Example 19, 25° C, 24 h",27%
same,Mortality %,"[1]; Example 23, 25° C, 24 h",27%
same,Mortality %,"[1]; Example 27, 25° C, 24 h",27%
